Data reported in patent US20080299193A1, “Pharmaceutical composition comprising eszoplicone” (Lek Pharmaceuticals d.d., priority 2007, published 2008).
≈ marks a conversion by molar mass, not a printed value.

Tests used:
[1] = Stress stability testing at 60° C. for 14 days, impurities by HPLC; assay type: physicochemical
Protocol: Tablets comprising eszopiclone with different particle sizes were prepared and exposed to stress stability testing at 60° C. for 14 days, stored in vials. The amount of formed degradation products was compared to the sample of commercially available tablets comprising eszopiclone (Lunesta®).
The HPLC analysis were performed with a WATERS Acquity UPLC system equipped with a UPLC BEH Shield, 1.7 μm, 50×2.1 mm column which was maintained in a column oven at 45° C. The mobile phase consisted of a mixture of ammonium acetate, TEA and acetonitrile with pH=5.8. The flow rate was 1.0 mL/min, and the detection wavelength was 303 nm.
All impurities eluted within 21 minutes represent the total amount of eszopiclone impurities.

[2] = Solubility of eszopiclone in phosphate buffer media at pH 6.8; assay type: physicochemical
Protocol: Substance containing larger particles has in general lower surface area which may result in decreased water solubility and consequently in decreased biological activity due to impaired absorption from the gastrointestinal tract. […] The solubility was measured at pH 6.8, which represents the pH in the small intestine, a primary site of drug absorption. Therefore, no effect on the gastrointestinal absorption can be expected due to larger particles of eszopiclone.
The solubility of eszopiclone in phosphate buffer media at pH 6.8 was studied at room temperature. An excess of sample was placed in the laboratory beaker filled with 50 ml media and mixed on the magnetic stirrer for 60 minutes. Afterwards, the part of the dispersion was taken from the beaker, filtered through the 0.45 μm filter and the concentration of eszopiclone was determined by UV spectroscopy.

**Q.** Which results are given for `CN1CCN(C(=O)O[C@H]2c3nccnc3C(=O)N2c2ccc(Cl)cn2)CC1` [Substance in a crystal form, (+)-5(S)-6-(chloropyridin-2-yik)-7-oxo-6,7-dihydro-5H-pyrrolo[3,4-b]pyrazin-5-yl 4-methylpiperazine-1-carboxylate]?
**A.** Stability at elevated temperature (in words) ([1]; 60° C. for 14 days): stable; Total sum of impurities ([1]; 14 days, 60° C., stored in vials, all impurities eluted within 21 minutes): <0.05%; Max. unknown ([1]; 14 days, 60° C., stored in vials, maximum unknown impurity): <0.05%

**Q.** For `CN1CCN(C(=O)O[C@H]2c3nccnc3C(=O)N2c2ccc(Cl)cn2)CC1` [Eszopiclone with d(0.9) = 32.4 μm], which “Solubility at pH 6.8” value ([2]; phosphate buffer pH 6.8, room temperature, 60 minutes stirring, filtered 0.45 μm, UV spectroscopy) is on record?
**A.** 0.44 mg/ml

**Q.** Which results are given for `CN1CCN(C(=O)O[C@H]2c3nccnc3C(=O)N2c2ccc(Cl)cn2)CC1` [Eszopiclone with d(0.9) > 200 μm]?
**A.** Solubility compared to substance having fine particles (in words) ([2]; pH 6.8): comparable; solubility at 60 min ([2]; phosphate buffer, pH 6.8, aqueous buffer, thermodynamic from solid, phosphate buffer pH 6.8, room temperature, 60 minutes stirring, filtered 0.45 μm, UV spectroscopy): 570 µg/mL (≈ 1470 µM)
